Laboratory results reported in patent publication US12655116B2, “Substituted isophthalic acid diamides” (Bayer Aktiengesellschaft, priority 2020, dated 2026).

Legend:
[1] = system: ALOMY; experiment: Pre-emergence herbicidal action against ALOMY; assay type: in vivo, Alopecurus myosuroides; settings: 80 g/ha, pre-emergence, scored visually after 3 weeks vs untreated controls (100% = plants have died, 0% = like control plants)
In short: (§1)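 Herbicidal effect was assessed 3 weeks after treatment by visual comparison with untreated controls, 100% denoting dead plants. Aqueous WP or EC preparations had been applied at 600 to 800 l/ha with 0.2% wetting agent to the soil covering freshly sown seeds.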

[2] = system: SETVI; experiment: Pre-emergence herbicidal action against SETVI; assay type: in vivo, Setaria viridis; settings: dosage 80 g/ha
In short: as §1

[3] = system: AVEFA; experiment: Pre-emergence herbicidal action against AVEFA; assay type: in vivo, Avena fatua; settings: 80 g/ha, pre-emergence
In short: as §1

[4] = system: VERPE; experiment: Pre-emergence herbicidal action against VERPE; assay type: in vivo, Veronica persica; settings: dosage 80 g/ha
In short: as §1

[5] = system: DIGSA; experiment: Post-emergence herbicidal action against DIGSA; assay type: in vivo, Digitaria sanguinalis
In short: (§2)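 Herbicidal effect was scored visually in percent after about 3 weeks in the greenhouse. Plants had been raised in sandy loam and treated post-emergence at the one-leaf stage with formulated compound at 600 to 800 l/ha water plus 0.2% wetting agent.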

[6] = system: PHBPU; experiment: Post-emergence herbicidal action against PHBPU; assay type: in vivo, Pharbitis purpurea
In short: as §2

[7] = system: AMARE; experiment: Pre-emergence herbicidal action against AMARE; assay type: in vivo, Amaranthus retroflexus
In short: as §1

[8] = system: ECHCG; experiment: Post-emergence herbicidal action against ECHCG; assay type: in vivo, Echinochloa crus-galli; settings: dosage 20 g/ha
In short: as §2

[9] = system: ABUTH; experiment: Post-emergence herbicidal action against ABUTH; assay type: in vivo, Abutilon theophrasti; settings: visual assessment about 3 weeks after treatment vs untreated controls
In short: as §2

[10] = system: AMARE; experiment: Post-emergence herbicidal action against AMARE; assay type: in vivo, Amaranthus retroflexus; settings: 20 g/ha, visual assessment about 3 weeks after treatment, 100% = plants have died, 0% = like control plants
In short: as §2

[11] = system: ECHCG; experiment: Pre-emergence herbicidal action against ECHCG; assay type: in vivo, Echinochloa crus-galli
In short: as §1

[12] = system: VIOTR; experiment: Post-emergence herbicidal action against VIOTR; assay type: in vivo, Viola tricolor
In short: as §2

[13] = system: DIGSA; experiment: Pre-emergence herbicidal action against DIGSA; assay type: in vivo, Digitaria sanguinalis
In short: as §1

[14] = system: VIOTR; experiment: Pre-emergence herbicidal action against VIOTR; assay type: in vivo, Viola tricolor
In short: as §1

[15] = system: ABUTH; experiment: Pre-emergence herbicidal action against ABUTH; assay type: in vivo, Abutilon theophrasti
In short: as §1

[16] = system: MATIN; experiment: Pre-emergence herbicidal action against MATIN; assay type: in vivo, Matricaria inodora
In short: as §1

[17] = system: MATIN; experiment: Post-emergence herbicidal action against MATIN; assay type: in vivo, Matricaria inodora; settings: dosage 20 g/ha
In short: as §2

[18] = system: SETVI; experiment: Post-emergence herbicidal action against SETVI; assay type: in vivo, Setaria viridis
In short: as §2

[19] = system: POLCO; experiment: Pre-emergence herbicidal action against POLCO; assay type: in vivo, Polygonum convolvulus; settings: dosage 80 g/ha
In short: as §1

[20] = system: VERPE; experiment: Post-emergence herbicidal action against VERPE; assay type: in vivo, Veronica persica
In short: as §2

[21] = system: LOLRI; experiment: Pre-emergence herbicidal action against LOLRI; assay type: in vivo, Lolium rigidum; settings: 80 g/ha
In short: as §1

[22] = system: PHBPU; experiment: Pre-emergence herbicidal action against PHBPU; assay type: in vivo, Pharbitis purpurea; settings: dosage 80 g/ha
In short: as §1

[23] = 80 g/ha, scored visually after 3 weeks vs untreated controls (100% = plants have died, 0% = like control plants)

`Cn1nnnc1NC(=O)c1ccc(C(F)(F)F)c(C(=O)NCC2CC2)c1C1CC1` [Example 1-289] was tested, and the “Pre-emergence action against ALOMY (herbicidal activity)” value [1] was 90%, the “Pre-emergence action against SETVI in %” value [2] was 80% and the “Pre-emergence action against AVEFA in %” value [3] was 80%. For the same molecule, the “Pre-emergence action against VERPE in %” value [4] was 100%, the “Post-emergence action against DIGSA in %” value ([5]; 5 g/ha) was 90% and the “Post-emergence action against DIGSA” value ([5]; 20 g/ha) was 90%. For the same molecule, the “Post-emergence action against PHBPU in %” value ([6]; dosage 5 g/ha) was 80%, the “Post-emergence action against PHBPU in %” value ([6]; dosage 20 g/ha) was 90% and the “Pre-emergence action against AMARE in %” value ([7]; 20 g/ha, scored visually after 3 weeks vs untreated controls, 100% = plants have died, 0% = like control plants) was 90%. For the same molecule, the “Pre-emergence action against AMARE in %” value [7, 23] was 100%, the “Post-emergence action against ECHCG in %” value [8] was 80% and the “Post-emergence action against ABUTH in %” value ([9]; dosage 5 g/ha) was 80%. The “Post-emergence action against ABUTH in %” value ([9]; dosage 20 g/ha) was 80%, the “Post-emergence action at 20 g/ha against AMARE in %” value [10] was 90% and the “Pre-emergence action against ECHCG in %” value ([11]; 20 g/ha) was 80%. The “Pre-emergence action against ECHCG in %” value ([11]; 80 g/ha) was 100%, the “Post-emergence action against VIOTR in %” value ([12]; 5 g/ha) was 80% and the “Post-emergence action against VIOTR in %” value ([12]; 20 g/ha) was 90%. For the same molecule, the “Pre-emergence action against DIGSA in %” value ([13]; dosage 20 g/ha) was 100%, the “Pre-emergence action against DIGSA in %” value ([13]; dosage 80 g/ha) was 100% and the “Pre-emergence action against VIOTR in %” value ([14]; dosage 20 g/ha) was 100%. For the same molecule, the “Pre-emergence action against VIOTR in %” value ([14]; dosage 80 g/ha) was 100%, the “Pre-emergence action against ABUTH (herbicidal activity)” value [15, 23] was 100% and the “Pre-emergence action against ABUTH (herbicidal activity in percent)” value ([15]; dosage 20 g/ha, scored visually after 3 weeks vs untreated controls, 100% = plants have died, 0% = like control plants) was 100%. For the same molecule, the “Pre-emergence action against MATIN in %” value ([16]; dosage 20 g/ha) was 90%, the “Pre-emergence action against MATIN in %” value ([16]; dosage 80 g/ha) was 100% and the “Post-emergence action against MATIN in %” value [17] was 80%. For the same molecule, the “Post-emergence action against SETVI in %” value ([18]; dosage 5 g/ha) was 80%, the “Post-emergence action against SETVI in %” value ([18]; dosage 20 g/ha) was 90% and the “Pre-emergence action against POLCO in %” value [19] was 80%. For the same molecule, the “Post-emergence action against VERPE in %” value ([20]; 5 g/ha) was 80%, the “Post-emergence action against VERPE in %” value ([20]; 20 g/ha) was 90% and the “Pre-emergence action against LOLRI in %” value [21] was 80%. The “Pre-emergence action against PHBPU in %” value [22] was 80%.
